The source of these data is US10722520B2, “Heterocyclic compounds and their use in preventing or treating bacterial infections” (MUTABILIS, priority 2016, dated 2020).

As usually defined, the IC50 is the point on the concentration scale where inhibition reaches its midpoint. For orientation: MIC means the least concentration at which growth counts as inhibited.

Structures can show the parent of a compound that is named as a salt. Where two headings read alike, the source gives them in different places. A value given as a limit tells only on which side of the number the result lay.

Targets include SHV-1 (Klebsiella pneumoniae, UniProt P0AD64); CTX-M-15 (Escherichia coli, UniProt Q9EXV5); OXA-48 (Klebsiella pneumoniae, UniProt Q6XEC0); KPC-2 (Klebsiella pneumoniae, UniProt Q9F663); OXA-1 (Escherichia coli, UniProt P13661); TEM-1 (Escherichia coli, UniProt P62593); OXA-11 (Pseudomonas aeruginosa, UniProt Q06778).
In a further experiment the target is CMY-37 (Citrobacter freundii, UniProt P05193). The settings on record: read-out: IC50 β-lactamase CMY-37.
In a further experiment the target is AmpC (PAE) (Pseudomonas aeruginosa, UniProt P24735). As to the kind of experiment: biochemical.
Another experiment addresses AmpC (P99) (Enterobacter cloacae, UniProt P05364). Description: biochemical.
A further experiment concerns E. coli 190317. Description: MIC of compound alone, broth microdilution. Format: cell-based. The settings on record: Escherichia coli; strain 190317; compound alone; read-out: MIC compounds of the invention alone. The procedure: (§1) Log phase bacterial suspensions were adjusted to a final density of 5×10^5 cfu/mL in cation-adjusted Mueller-Hinton broth (Becton-Dickinson) and added to each well (98 μL). Microplates were incubated for 16-20 h at 35° C. in ambient air. The MIC of the compounds was defined as the lowest concentration of said compounds that prevented bacterial growth as read by visual inspection.
In general terms: Broth dilution looks for growth in wells or tubes with falling amounts of substance.

For the next experiment, the system named is K. pneumoniae BAA-1898. Description: MIC of compound alone, broth microdilution. In kind it is cell-based. To be noted: Klebsiella pneumoniae, BAA1898; strain BAA-1898; compound alone; read-out: MIC compounds of the invention alone. The procedure: as §1
In a further experiment the test system is K. pneumoniae 6299. As to the kind of experiment: MIC of compound alone, broth microdilution. Format: cell-based. The settings on record: Klebsiella pneumoniae; strain 6299; compound alone; read-out: MIC compounds of the invention alone. As to the method: as §1
For the next experiment, the system named is P. aeruginosa CIP107051. Description: MIC of compound alone, broth microdilution. In kind it is cell-based. To be noted: Pseudomonas aeruginosa; strain CIP107051; compound alone; read-out: MIC compounds of the invention alone. The procedure: as §1
Another experiment has as its system E. cloacae P99. As to the kind of experiment: MIC of compound alone, broth microdilution. Format: cell-based. The settings on record: Enterobacter cloacae; strain P99; compound alone; read-out: MIC compounds of the invention alone. The procedure:
as §1

The target of the next experiment is OXA-15 (Pseudomonas aeruginosa, UniProt Q51574). As to the kind of experiment: biochemical.
The mark [1] stands for this setting: class (C), nitrocefin 200 μM, 30-min pre-incubation, enzyme 0.2 nM.

On to `NC(=O)c1ccn(C2=CC3CN(C2)C(=O)N3OS(=O)(=O)[O-])n1.[Na+]` (stereo not drawn) [Example 19, sodium [3-(3-carbamoylpyrazol-1-yl)-7-oxo-1,6-diazabicyclo[3.2.1]oct-3-en-6-yl]sulfate], for which the IC50 on SHV-1 was found to be 1.8 nM; at CMY-37, 41 nM; against CTX-M-15, 0.9 nM; on OXA-48, 5.2 nM; against AmpC (PAE) it was 170 nM; against KPC-2 it was 6.2 nM. For the same compound, the IC50 came to 110 nM against OXA-1; 19 nM on AmpC (P99); 61 nM against OXA-15; 0.38 nM at TEM-1; 27 nM on OXA-11. The MIC in the experiment on E. coli 190317 was 4 µg/mL; in the experiment with K. pneumoniae BAA-1898 it was 16 µg/mL; with K. pneumoniae 6299, 16 µg/mL; in the experiment with P. aeruginosa CIP107051, above 32 µg/mL; in the experiment on E. cloacae P99, 8 µg/mL.

On to `NCCc1ccn(C2=CC3CN(C2)C(=O)N3OS(=O)(=O)O)n1` (stereo not drawn) [Example 10, [3-[3-(2-aminoethyl)pyrazol-1-yl]-7-oxo-1,6-diazabicyclo[3.2.1]oct-3-en-6-yl]hydrogen sulfate], for which the IC50 against SHV-1 was 3.2 nM; on CMY-37 (setting [1]), 18 nM; against CTX-M-15 it was 1.1 nM; at OXA-48, 14 nM; at AmpC (PAE) it was 160 nM; at KPC-2, 50 nM. The IC50 against OXA-1 was 270 nM; against AmpC (P99), 22 nM; against OXA-15, 180 nM; on TEM-1 it was 0.3 nM; at OXA-11, 67 nM. For the same compound, the MIC in the experiment with E. coli 190317 is 1 µg/mL; in the experiment with K. pneumoniae BAA-1898 it was 16 µg/mL; with K. pneumoniae 6299 it was above 32 µg/mL; in the experiment with P. aeruginosa CIP107051, 32 µg/mL; with E. cloacae P99, 8 µg/mL.

As for `O=C(Nc1nncs1)c1ccn(C2=CC3CN(C2)C(=O)N3OS(=O)(=O)[O-])n1.[Na+]` (stereo not drawn) [Example 84, sodium [7-oxo-3-[3-(1,3,4-thiadiazol-2-ylcarbamoyl)pyrazol-1-yl]-1,6-diazabicyclo[3.2.1]oct-3-en-6-yl]sulfate], the IC50 was 2.7 nM against SHV-1; 20 nM on CMY-37; 1 nM at CTX-M-15; 7.2 nM against OXA-48; 160 nM on AmpC (PAE); 8.5 nM on KPC-2. Also, the IC50 at OXA-1 was 150 nM; at AmpC (P99), 25 nM; against OXA-15 it was 98 nM; against TEM-1, 0.78 nM; on OXA-11, 22 nM. Further, the MIC in the experiment on E. coli 190317, in the experiment with K. pneumoniae BAA-1898, with K. pneumoniae 6299, in the experiment on P. aeruginosa CIP107051 and in the experiment with E. cloacae P99 was above 32 µg/mL each time.

Consider `NCCONC(=O)c1ccn(C2=CC3CN(C2)C(=O)N3OS(=O)(=O)O)n1` (stereo not drawn) [Example 46, [3-[3-(2-aminoethoxycarbamoyl)pyrazol-1-yl]-7-oxo-1,6-diazabicyclo[3.2.1]oct-3-en-6-yl]hydrogen sulfate], for which the IC50 was found to be 4 nM at SHV-1; 16 nM at CMY-37 (setting [1]); 0.7 nM against CTX-M-15; 3.9 nM against OXA-48; 160 nM against AmpC (PAE); 11 nM against KPC-2. Besides, the half-maximal inhibitory concentration (IC50) against OXA-1 amounted to 140 nM; at AmpC (P99), 25 nM; on OXA-15, 170 nM; on TEM-1, 0.89 nM; against OXA-11, 49 nM. In addition, the MIC was 2 µg/mL with E. coli 190317; 16 µg/mL in the experiment with K. pneumoniae BAA-1898; above 32 µg/mL in the experiment on K. pneumoniae 6299; above 32 µg/mL in the experiment on P. aeruginosa CIP107051; 16 µg/mL in the experiment on E. cloacae P99.

Consider `O=C(CO)Nc1ccn(C2=CC3CN(C2)C(=O)N3OS(=O)(=O)[O-])n1.[Na+]` (stereo not drawn) [Example 50, sodium [3-[3-[(2-hydroxyacetyl)amino]pyrazol-1-yl]-7-oxo-1,6-diazabicyclo[3.2.1]oct-3-en-6-yl]sulfate], for which the IC50 on SHV-1 amounted to 5.6 nM; at CMY-37, 5.9 nM; against CTX-M-15, 0.59 nM; against OXA-48, 5.7 nM; against AmpC (PAE), 67 nM; against KPC-2 it was 12 nM. For the same compound, the IC50 on OXA-1 stood at 79 nM; on AmpC (P99), 12 nM; on OXA-15, 60 nM; against TEM-1 it was 1.2 nM; on OXA-11, 11 nM. In addition, the MIC in the experiment on E. coli 190317 is 8 µg/mL; with K. pneumoniae BAA-1898 it was 32 µg/mL; with K. pneumoniae 6299, 16 µg/mL; in the experiment on P. aeruginosa CIP107051, above 32 µg/mL; in the experiment on E. cloacae P99, 16 µg/mL.

In the case of `O=C1N2CC(n3ncnn3)=CC(C2)N1OS(=O)(=O)[O-].[Na+]` (stereo not drawn) [Example 44, sodium [7-oxo-3-(tetrazol-2-yl)-1,6-diazabicyclo[3.2.1]oct-3-en-6-yl]sulfate], the IC50 at SHV-1 was 3.3 nM; on CMY-37, 26 nM; at CTX-M-15, 0.86 nM; against OXA-48, 0.29 nM; on AmpC (PAE), 150 nM; at KPC-2, 7.3 nM. For the same compound, the IC50 was 36 nM against OXA-1; 13 nM on AmpC (P99); 32 nM on OXA-15; 0.48 nM against TEM-1; 20 nM at OXA-11. The MIC in the experiment with E. coli 190317 was 1 µg/mL; in the experiment with K. pneumoniae BAA-1898, 4 µg/mL; in the experiment with K. pneumoniae 6299 it was 4 µg/mL; in the experiment with P. aeruginosa CIP107051, above 32 µg/mL; in the experiment with E. cloacae P99, 4 µg/mL.

Regarding `O=C(Nc1ccccn1)c1ccn(C2=CC3CN(C2)C(=O)N3OS(=O)(=O)[O-])n1.[Na+]` (stereo not drawn) [Example 80, sodium [7-oxo-3-[3-(2-pyridylcarbamoyl)pyrazol-1-yl]-1,6-diazabicyclo[3.2.1]oct-3-en-6-yl]sulfate], the IC50 at SHV-1 worked out at 1.4 nM; on CMY-37 it was 12 nM; on CTX-M-15 it was 0.29 nM; at OXA-48 it was 0.86 nM; at AmpC (PAE) it was 150 nM; against KPC-2 it was 2.6 nM. The IC50 was 30 nM against OXA-1; 7.9 nM against AmpC (P99); 11 nM on OXA-15; 0.27 nM against TEM-1; 5.5 nM against OXA-11. Besides, the MIC with E. coli 190317, in the experiment on K. pneumoniae BAA-1898, in the experiment with K. pneumoniae 6299, in the experiment on P. aeruginosa CIP107051 and in the experiment on E. cloacae P99 was above 32 µg/mL throughout.

Turning to `O=C(NC1CCNCC1)c1ccn(C2=CC3CN(C2)C(=O)N3OS(=O)(=O)O)n1` (stereo not drawn) [Example 32, (7-oxo-3-[3-(4-piperidylcarbamoyl)pyrazol-1-yl]-1,6-diazabicyclo[3.2.1]oct-3-en-6-yl) hydrogen sulfate], the concentration for half-maximal inhibition (IC50) worked out at 8.2 nM at SHV-1; 59 nM on CMY-37 (setting [1]); 1 nM against CTX-M-15; 1.5 nM against OXA-48; 210 nM on AmpC (PAE); 6.9 nM at KPC-2. Also, the IC50 on OXA-1 amounted to 79 nM; on AmpC (P99) it was 29 nM; on OXA-15 it was 39 nM; against TEM-1, 1.1 nM; at OXA-11 it was 27 nM. Besides, the MIC with E. coli 190317 is 8 µg/mL; in the experiment on K. pneumoniae BAA-1898, 16 µg/mL; in the experiment with K. pneumoniae 6299, 32 µg/mL; in the experiment on P. aeruginosa CIP107051 it was above 32 µg/mL; with E. cloacae P99 it was 16 µg/mL.

Turning to `O=C(Nc1ccn(C2=CC3CN(C2)C(=O)N3OS(=O)(=O)[O-])n1)c1nccs1.[Na+]` (stereo not drawn) [Example 34, sodium {7-oxo-3-[3-(thiazole-2-carbonylamino)pyrazol-1-yl]-1,6-diazabicyclo[3.2.1]oct-3-en-6-yl}sulfate], the IC50 is 3.1 nM against SHV-1; 6.2 nM on CMY-37; 0.92 nM at CTX-M-15; 9.4 nM against OXA-48; 56 nM on AmpC (PAE); 8.5 nM against KPC-2. Further, the IC50 is 130 nM at OXA-1; 10 nM against AmpC (P99); 34 nM against OXA-15; 1 nM at TEM-1; 13 nM at OXA-11. In addition, the MIC in the experiment on E. coli 190317, with K. pneumoniae BAA-1898, in the experiment with K. pneumoniae 6299, with P. aeruginosa CIP107051 and with E. cloacae P99 was above 32 µg/mL each time.
